Data set [1] concerns human granulocytes. Put plainly: Intracellular cADPR content in granulocytes (enzymatic cycling assay). The class given is cell-based. The settings on record: ABA 20 μM. As for the experimental part: (§1) Panel A. GDP-ribosyl cyclase activity has been measured in granulocytes in the presence of increasing ABA concentrations, added together with the cyclase substrate NGD^+. The results are expressed as cyclase activity relative to control cells, incubated in the absence of ABA (mean ±SD from 5 determinations). Panel B. The intracellular concentration of cADPR was measured by enzymatic cycling assay (Materials and Methods) on granulcoytes incubated with 20 μM ABA for the periods of time indicated. The results are expressed as [cADPR]i relative to control cells, incubated without ABA (n=2).
The assays to determine the intracellular cADPR concentration ([cADPR]i) in granulocytes are known to the expert in the field. Granulocytes (40×10^6/ml in RPMI 1640) were incubated in the presence of 20 μM ABA and at various times 500 μl-aliquots were withdrawn and centrifuged (5,000×g for 15 s) to recover the cell pellets. Determination of the [cADPR]i was performed on perchloric acid cell extracts by an enzymatic cycling assay, as described in (Graeff, Biochem. J. 2002).

Data set [2] relates to human granulocytes. In words: GDP-ribosyl cyclase activity in granulocytes. The class given is cell-based. As to conditions: ABA 0.2 to 200 μM; detectable after 5 min. As for the experimental part:
as §1
Granulocytes were resuspended in HBSS (60×10^6/ml) and cyclase activity was measured by adding the substrate NGD^+ (a NAD^+ analogue, which product cGDPR is fluorescent) at the concentration of 0.2 mM together with increasing concentrations of ABA. At various times (0, 5, 15, 60 and 120 min) 100 μl-aliquots were withdrawn and centrifuged (5,000×g for 15 s) and supernatants were deproteinized with 2.5% (v/v) trichloroacetic acid. The cGDPR content was estimated by HPLC analysis, as described in (Guida, FEBS 1995).

For data set [3], the system named is murine microglia cell line N9. Put plainly: Chemokinesis of murine microglia N9. The class given is cell-based. As to conditions: ABA 0.2-20 μM. As for the experimental part: Assays were performed using 96-well ChemoTx system microplates with a 3-μm pore size polycarbonate filter (NeuroProbe Inc., Gaithersburg, USA). Cells (granulocytes or murine microglia) were resuspended at 10^7/ml in HBSS, PBS and 5% albumin, 39:16:1 (chemotaxis buffer, CB). In order to evaluate the chemoattractant effect of ABA, hormone concentrations ranging from 50 nM to 20 μM were added in CB in the bottom wells and 25 μl cell suspensions were placed on top of the filter. To evaluate a possible stimulatory effect of ABA on spontaneous cell movements (chemokinesis), cells were pre-incubated with or without 20 μM ABA, then washed and placed on top of the filter, in contact with CB. Plates were incubated at 37° C. for 60 min and transmigrated cells were recovered and quantified by fluorimetric assay with Cytox Green. The number of transmigrated cells was calculated by comparison of the measured fluorescence with that of a standard curve, obtained by directly placing a serial dilution of cells in the bottom wells. The results of the chemotaxis experiments are expressed as “chemotaxis index” (CI): CI=number of cells migrated towards chemoattractant/number of cells migrated towards CB
The results of the chemokinesis experiments are expressed as number of ABA pre-treated cells migrated through the filter compared to control cells (not treated with ABA).

Data set [4] deals with murine macrophages RAW 264.7. Put plainly: COX-2 expression in LPS-stimulated RAW 264.7. The class given is cell-based. The settings on record: exogenous ABA 10-20 μM added to fluridone-treated cultures. As for the experimental part:
Murine macrophages from the RAW 264.7 cell line were stimulated with 10 μM ABA or with 100 ng/ml lipopolysaccharide (LPS) for 6 hours, after pre-incubation with 50 μM fluridone for 3 hours.

Data set [5] relates to murine microglial cell line N9. In words: ABA content in murine microglia N9 by HPLC-MS. It counts as cell-based. The settings on record: N9 cells; fluridone 50 μM together with LPS. As for the experimental part:
Cells from the murine microglial cell line N9 were pre-incubated with or without 50 μM fluridone for 2 hours and then stimulated with 100 ng/ml lipopolysaccharide (LPS) for 24 hours. The ABA content was measured by HPLC-MS (see Materials and Methods) and was compared with that of untreated cells (control). The results are the mean from 2 experiments.
N9 cells were seeded (25×10^6/flask) in IMDM medium containing fetal calf serum, incubated for 3 h at 37° C. with or without 50 μM fluridone and then incubated for 3 days in the absence or in the presence of 200 ng/ml lipopolysaccharide (LPS). Cells were then recovered, washed in phosphate-buffered saline isotonic solution at pH 7.4 (PBS), resuspended in 0.5 ml water and sonicated. […] A small aliquot of the extract was used to determine radioactivity (with a β-counter), allowing the calculation of the percentage of ABA recovery after-extraction. The rest of the extract was analyzed on an Agilent 1100 capillary chromatography system, with a diode array detector, equipped with a Waters Atlantis™ dC18 150×1 mm column, particle size 3 μm, coupled to an Agilent 1100 series LC/MSD Trap mass spectrometer, equipped with an orthogonal geometry electrospray source and ion trap analyser. […]

Another data set concerns rats. The settings on record: oral administration; cited from earlier work.
Data set [6] relates to human granulocytes and lymphocytes. Put plainly: ABA content in stimulated human granulocytes and lymphocytes (immunoassay for ABA). The settings on record: fluridone 10-50 μM. The class given is cell-based. As for the experimental part:
The increase of the intracellular ABA concentration induced by f-MLP in granulocytes and by PMA in lymphocytes is inhibited by the addition of fluridone at micromolar concentrations (ranging between 10 and 50 μM) during cell incubation with the pro-inflammatory stimuli.

In a further data set the test system is whole blood cells. Put plainly: LPS-induced histamine release from blood cells. As to conditions: pre-incubation with 50 μM fluridone. The class given is cell-based, human. As for the experimental part:
Whole blood was pre-incubated for 2 hours at 25° C. in the absence (control) or in the presence of 50 μM fluridone. Then, 100 ng/ml of lipopolysaccharide (LPS) was added to the blood at 37° C. for the time indicated. The histamine concentration in plasma was measured immunoenzymatically with a commercially available kit (IBL-Hamburg, Germany). The results are the mean ±SD from 3 experiments.

Data set [7] deals with murine macrophages RAW 264.7. In words: Cell viability by Trypan blue exclusion, RAW 264.7. It counts as cell-based. The settings on record: RAW 264.7, fluridone 50 μM. An excerpt: A similar effect (90% inhibition) is produced by fluridone also on the LPS-induced TNF-α production in both cell types (FIGS. 7 A and B). In all these cases, no toxicity of fluridone on the cells was observed, as evaluated by the ability of excluding the dye Trypan blue.

The structures appear in SMILES notation. Entries after “also recorded” stand apart in the source; their conditions may differ.

Consider `CC1=CC(=O)CC(C)(C)[C@@]1(O)/C=C/C(C)=C\C(=O)O` (racemic) [ABA, (±)-cis, trans ABA], for which the “intracellular cADPR concentration ([cADPR]i)” value in the data set with human granulocytes [1] is “increase”. Moreover, the GDP-ribosyl cyclase activity result in the data set on human granulocytes [2] is “dose-dependent stimulation”. Moreover, the chemokinesis entry in data set [3] was “increase; also recorded: ↑chemokinesis”. The “increase of COX-2 expression compromised by fluridone” value in data set [4] is on record as “partly restores”.
In general, LD50 refers to the dose at which mortality reaches 50%. Turning to `Cn1cc(-c2ccccc2)c(=O)c(-c2cccc(C(F)(F)F)c2)c1` [Fluridone, 1-methyl-3-phenyl-5-(α,α,α-trifluoro-m-tolyl)-4-pyridone], the “reduction of the LPS-induced increase of intracellular ABA content” value in data set [5] was determined as 60%. In the data set on rats, the LD50 was over 10000 mg/kg. In addition, the “inhibition of the increase of intracellular ABA concentration” value in [6] (granulocytes, f-MLP-induced) is 40%; in data set [6] (lymphocytes, PMA-induced), 50%. Besides, the “histamine release by LPS-stimulated (unfractionated) blood cells” value in the data set on whole blood cells was “completely inhibits”. For the same compound, in data set [7], the “toxicity on the cells (Trypan blue exclusion)” value is reported as “no toxicity”.

Source of the values: patent publication US7786042B2, “Fluridone as an anti-inflammatory agent” (Universita' Degli Studi Di Genova, priority 2005, dated 2010).
